Experimental data as given in EP0309765A2, “1(2H)-Phthalazinones as cytoprotective agents” (FISONS CORPORATION, priority 1987, dated 1989).
Where a name gives a salt, the structure may show the parent alone.

Each molecule was assayed on Indomethacin-induced Gastric Lesions (assay: Reversal of indomethacin-induced gastric lesions (number of macroscopically visible hemorrhagic lesions in the glandular stomach)). Conditions: Rattus norvegicus, ip, 6 h; test compound 50 mg/kg intraperitoneal, 1 hour before 25 mg/kg oral indomethacin; lesions counted six hours after indomethacin; versus saline control group; read-out: Percent Inhibition.
Assay type: in vivo, Male, Sprague-Dawley rats
Description: The methodology for determining the degree of inhibition of gastric lesion formation by the compounds of formula 1 is described below and the results, expressed as percent inhibition, are given in Table 1. Reversal of Indomethacin-induced Gastric Lesions Male, Sprague-Dawley rats weighing 200-225 grams were fasted 24 hours prior to the intraperitoneal administration of the test compounds. The standard screening dosed employed was either 100 or 50 mg/kg. One hour later, the rats were orally administered 25 mg/kg of indomethacin. Both indomethacin and the compounds were suspended in 1% Clearjel ("Instant Clearjel®", a food grade pregelatinized starch from National Starch and Chemical Corporation, New York, N.Y.) or .85% NaCl saline for dosing. Six hours after indomethacin administration, the animals were sacrificed, their stomachs removed, opened along the line of greater curvature, and rinsed with distilled water. The number of macroscopically visible hemmorhagic lesions (dark brown discolorations) in the glandular portion of the stomach was enumerated. […] [table]
With `COc1ccc(/C=C/c2ccc3c(=O)n(CCN4CCOCC4)ncc3c2)cc1` [Example 4, Trans-6-[2-(4-methoxyphenyl)ethenyl]-2-(2-morpholinoethyl)-phthalazin-1(2H)-one hydrobromide] the inhibition in vivo at 50 mg/kg was 7%. With `COc1ccc(/C=C/c2ccc3c(=O)n(CCCN)ncc3c2)cc1` [Example 8, Trans-6-[2-(4-methoxyphenyl)ethenyl]-2-(3-aminopropyl)-phthalazin-1(2H)-one hydrobromide] the inhibition in vivo at 50 mg/kg was 96%. In the case of `COc1ccc(/C=C\c2ccc3c(=O)n(CCCN(C)C)ncc3c2)cc1` [Example 10, CIs-6-[2-(4-methoxyphenyl)ethenyl]-2-[3-(dimethylamino)propyl]phthalazin-1(2H)-one cyclohexylsulfamate], the inhibition in vivo at 50 mg/kg is reported as 61%. Work on `CNCCCn1ncc2cc(/C=C/c3ccc(OC)cc3)ccc2c1=O` [Example 7, Trans-6-[2-(4-methoxyphenyl)ethenyl]-2-[3-(methylamino)-propyl]phthalazin-1(2H)-one hydrobromide] yielded an inhibition in vivo at 50 mg/kg of 79%. For `COc1ccc(/C=C/c2ccc3c(=O)n(CCCN4CCNCC4)ncc3c2)cc1` [Example 5, Trans-6-[2-(4-methoxyphenyl)ethenyl]-2-[3-(1-piperazino)-propyl]phthalazin-1(2H)-one], the inhibition in vivo at 50 mg/kg was 89%. `CN(C)CCCn1ncc2cc(/C=C/c3ccccc3)ccc2c1=O` [Example 16, Trans-2-[3-(dimethylamino)propyl]-6-(2-phenylethenyl)-1(2H)-phthalazinone] showed an inhibition in vivo at 50 mg/kg of 80%. `COc1ccc(/C=C/c2ccc3c(=O)n(CCCN4CCCCC4)ncc3c2)cc1` [Example 2, Trans-6-[2-(4-methoxyphenyl)ethenyl]-2-(3-piperidinopropyl)-phthalazin-1(2H)-one hydrobromide] showed an inhibition in vivo at 50 mg/kg of 91%. `COc1ccc(/C=C/c2ccc3c(=O)n(CCCN(C)C)ncc3c2)cc1` [Example 13, Trans-6-[2-(4-methoxyphenyl)ethenyl]-2-[3-dimethylamino)-propyl]phthalazin-1(2H)-one hydrobromide] was tested, and the inhibition in vivo at 50 mg/kg was 99%. Work on `COc1ccc(/C=C/c2ccc3c(=O)n(CCCCN(C)C)ncc3c2)cc1` [Example 9, Trans-6-[2-(4-methoxyphenyl)ethenyl]-2-[4-(dimethylamino)-butyl]phthalazin-1(2H)-one hydrobromide] yielded an inhibition in vivo at 50 mg/kg of 85%. In the case of `CN(C)CCCn1ncc2cc(/C=C/c3ccc(O)cc3)ccc2c1=O` [Example 14, Trans-6-[2-(4-hydroxyphenyl)ethenyl]-2-[3-(dimethylamino)-propyl]phthalazin-1(2H)-one hydrochloride], the inhibition in vivo at 50 mg/kg is reported as 96.3%.

Same assay, conditions: Rattus norvegicus, ip, 6 h; test compound 100 mg/kg intraperitoneal, 1 hour before 25 mg/kg oral indomethacin; lesions counted six hours after indomethacin; versus saline control group; read-out: Percent Inhibition
Molecule `CN(C)CCn1ncc2cc(/C=C/c3ccc(O)cc3)ccc2c1=O` [Example 15, Trans-6-[2-(4-hydroxyphenyl)ethenyl]-2-[2-(dimethylamino)-ethyl]-1(2H)-phthalazinone hydrochloride] has an inhibition in vivo at 100 mg/kg of 7.2%. For `COc1ccc(/C=C/c2ccc3c(=O)n(CCN(C(C)C)C(C)C)ncc3c2)cc1` [Example 1, Trans-6-[2-(4-methoxyphenyl)ethenyl]-2-[2-(diisopropylamino)-ethyl]phthalazin-1(2H)-one hydrobromide], the inhibition in vivo at 100 mg/kg was 92%. In the case of `O=c1c2ccc(/C=C/c3ccccc3)cc2cnn1CCO` [Example 17, Trans-2-(2-hydroxyethyl)-6-(2-phenylethenyl)-1(2H)-phthalazinone], the inhibition in vivo at 100 mg/kg is reported as 59%. With `O=c1[nH]ncc2cc(/C=C/c3ccc(O)cc3)ccc12` [Example 11, Trans-6-[2-(4-Hydroxyphenyl)ethenyl]-phthalazin-1(2H)-one] the inhibition in vivo at 100 mg/kg was 45%. With `COc1ccc(/C=C/c2ccc3c(=O)n(CCN(C)C)ncc3c2)cc1` [Example 3, Trans-6-[2-(4-methoxyphenyl)ethenyl]-2-[2-(dimethylamino)-ethyl]phthalazin-1(2H)-one hydrobromide] the inhibition in vivo at 100 mg/kg was 65%. `COc1ccc(/C=C/c2ccc3c(=O)n(C4CCN(C)CC4)ncc3c2)cc1` [Example 6, Trans-6-[2-(4-methoxyphenyl)ethenyl]-2-(1-methyl-4-piperidinyl)phthalazin-1(2H)-one] showed an inhibition in vivo at 100 mg/kg of 63%. For `O=c1[nH]ncc2cc(/C=C/c3ccccc3)ccc12` [Example 12, Trans-6-[2-phenylethenyl]phthalazin-1(2H)-one], the inhibition in vivo at 100 mg/kg was 43%.
